Assay results from patent US8048915B2, “Biologically active complex” (BioMas Ltd., priority 2001, dated 2011).
Where “and” joins values, the source holds several entries; their conditions need not be identical. Equal entries are not always repeated. Where two headings read alike, the source gives them in different places.

Tests used:
[1] = test system: mice; conditions: 6 week old mice; preliminary
[2] = test system: Ha-Ras transformed NIH-3T3 cells; test: Colony growth of Ha-Ras transformed NIH-3T3 cells; type: cell-based
Protocol: 5×10^2 cells were plated per 60 mm dish and incubated with different concentrations (0.005-5 μg/ml) of the complex in PBS. A week later, the cells were stained with Gimsa and clones were counted. Similar experiments were conducted using V-mos transformed NIH-3T3 cells, and also using Ph2TeCl2 and Ph3TeCl, with both types of transformed cells.

[3] = test system: West Nile virus (WNV)
Protocol: (§1) All cultures were then infected with 10^4 PFU/plate. After 72 h incubation the supernatants were collected and the virus was titrated against Vera cells.

[4] = test system: IL-2
[5] = test system: interleukin-2 (IL-2); conditions: single animals
Protocol: The test animals were Balb-c, male, mice, 6 to 8 weeks of age. […] The animals received the following injections:
Each of groups a, b, c and d consisted of 21 animals. The animals were sacrificed daily from 24 h to 7 days after injection. On each day, spleen cells from three of the animals from each control group were pooled together and processed by passing the spleen cells through a 60 mesh stainless steel net in a 5 mm Petri dish containing PBS in order to separate the cells. The cells were collected and centrifuged at 1000 rpm for 10 minutes. The supernatant was discarded and the cells were treated for two minutes with 5 ml of hypotonic buffer (0.15M NH4 Cl, 0.01M KHCO3 dissolved in double distilled water, pH 7.2) to kill the erythrocytes. Thereafter, PBS was added to the cells and the cells were centrifuged for 10 minutes at 1000 rpm. The cells were washed twice with PBS and counted in a hemocytometer using trypan blue to test for viability. The cells were brought to a concentration of 10^7 cells/ml using enriched RPMI containing 10% fetal calf serum (Ser Lab, Sussex, England); 5×10^−5M 2-mercaptoethanol and 3% of d-glutamine (Bio Lab Israel); stock solution 2 mM×1000 nonessential amino acids (Bio Lab, Israel); stock solution×100 and sodium pyruvate (Bio Lab, Israel) stock solution 1 mM×100. An additional three animals from each of the experimental groups were sacrificed and each of the spleens was processed separately using the same procedure.
The cell mixture was divided into two groups:
Supernatants were collected, centrifuged at 1,600 rpm for 10 minutes and stored at 4° C. until used. […] These supernatants were assayed for CSF activity. Prior to incubation of the cells, samples were removed from culture plates and smears of the cultures were made by cytocentrifugation. Slides were stained with May-Grunwald-Giemsa (1:10) solution and evaluated morphologically. A radioactive thymidine assay was used to determine IL-2 activity. Assay for IL-2 Activity • 1. Supernatants were tested for IL-2 activity by the proliferation of the IL-2 dependent cell line CTLD. The IL-2 assay is based on the growth dependence of these cultured T-cell lines on IL-2. T cells harvested from IL-2 dependent culture, washed and placed back in culture in the absence of IL-2 invariably die within 24 hr. By using tritiated thymidine incorporation (^3H-TdR) as an index of cultured T-cell replication, the IL-2 microassay provides a highly reproducible and quantitative indication of the amount of IL-2 activity in the supernatant prepared hereinabove. • 2. To assay a condition medium for IL-2 activity, a sample containing 5 x 10^4 CTLD cells, 10% fetal calf serum and 50% of supernatant in question, all were suspended in a final volume of 1 ml RPMI. Aliquots of 0.2 ml from each sample were placed in four replicate wells of 96 microwell tissue culture plates (NUNC). Conditioned medium was obtained from cultures of Charles River rat spleen cells stimulated with Con A that contained a known amount of IL-2 as a reference in all assays. • 3. The microwells were incubated for 24 hr at 37° C. after which 1 microcurie/well of ^3H-methylthymidine was added. Cells were then further incubated overnight, harvested with a cell harvester, and counted in a beta scintillator.

[6] = test system: IL-2; conditions: 72 hours culture, 50% supernatant on CTLD cells
Description: Culture supernatants were collected, centrifuged and tested for IL-2 activity by using 50% of the volume of the supernatant assaying their ability to support the proliferation of the IL-2 dependent cell line CTLD.

[7] = test system: fibrosarcoma cells
[8] = test system: mouse macrophages; test: Survival of mouse macrophage monolayer incubated with complex
Protocol: as §1

[9] = test system: human mononuclear cells; test: Proliferation of human mononuclear cells (Example 14); type: cell-based; conditions: 72 hours + 24 hours label, listed as Ex. 1
Protocol: Human mononuclear cells were obtained by layering heparinized blood over a Ficoll/Hypaque gradient. The mononuclear cells were resuspended in enriched RPMI, rinsed three times and brought to a concentrations of 5×10^5cells/ml enriched RPMI. Varying concentrations of the complexes of Ex. 1 and Ex. 7(a), ranging from 0.005 μg to 5 μg/cell mixture were added to the cells. Aliquots of 0.2 ml of each sample were placed in wells of microplates (triplicates).

Cl[Te]1(Cl)(Cl)OCCO1.N [Example 1, equimolar complex of TeO2 and ethylene glycol, NH4Cl salt]
LD50 [1]: 300 μg/25 g of body weight | number of colonies / growth compared with control ([2]; 0.005-5 μg/ml in PBS, one week, clones counted): major reduction in the number of colonies | concentration giving the maximum effect (inhibition) ([2]; 0.005-5 μg/ml tested): 0.05 µg/mL | reduction in virus yield [3]: ten | reduction of virus yield [3]: 40 fold | IL-2 production ([4]; NORMAL subjects, PHA +, 5 μg 0.2 ml PBS): 30.4 CPM × 10^−3 and 38.9 CPM × 10^−3 and 36.4 CPM × 10^−3 | IL-2 production ([4]; NORMAL subjects, PHA +, 1:50 PBS dilution of 5 μg/0.2 ml): 38.9 CPM × 10^−3 and 53.5 CPM × 10^−3 and 48.2 CPM × 10^−3 | IL-2 production ([4]; NORMAL subjects, PHA +, 1:100 PBS dilution of 5 μg/0.2 ml): 54.2 CPM × 10^−3 and 44.8 CPM × 10^−3 and 38.6 CPM × 10^−3 | IL-2 production ([4]; NORMAL subjects, PHA +, 1:200 PBS dilution of 5 μg/0.2 ml): 49.8 CPM × 10^−3 and 38.3 CPM × 10^−3 and 38.6 CPM × 10^−3 | IL-2 production ([4]; NORMAL subjects, PHA −, 5 μg 0.2 ml PBS): 2.1 CPM × 10^−3 and 2.3** CPM × 10^−3 | IL-2 production ([4]; NORMAL subjects, PHA −, 1:50 PBS dilution of 5 μg/0.2 ml): 52.2 CPM × 10^−3 and 50.8 CPM × 10^−3 and 43.6 CPM × 10^−3 | IL-2 production ([4]; NORMAL subjects, PHA −, 1:100 PBS dilution of 5 μg/0.2 ml): 50.3 CPM × 10^−3 and 46.1 CPM × 10^−3 and 38.4 CPM × 10^−3 | IL-2 production ([4]; NORMAL subjects, PHA −, 1:200 PBS dilution of 5 μg/0.2 ml): 47.1 CPM × 10^−3 and 31.3 CPM × 10^−3 and 30.1 CPM × 10^−3 | IL-2 production ([4]; SLE patients, PHA +, 5 μg 0.2 ml PBS): 6.3 CPM × 10^−3 and 8.2 CPM × 10^−3 and 4.1 CPM × 10^−3 | IL-2 production ([4]; SLE patients, PHA +, 1:50 PBS dilution of 5 μg/0.2 ml): 24.2 CPM × 10^−3 and 28.1 CPM × 10^−3 and 23.8 CPM × 10^−3 | IL-2 production ([4]; SLE patients, PHA +, 1:100 PBS dilution of 5 μg/0.2 ml): 19.7 CPM × 10^−3 and 24.0 CPM × 10^−3 and 20.2 CPM × 10^−3 | IL-2 production ([4]; SLE patients, PHA +, 1:200 PBS dilution of 5 μg/0.2 ml): 15.4 CPM × 10^−3 and 18.6 CPM × 10^−3 and 16.8 CPM × 10^−3 | IL-2 production ([4]; SLE patients, PHA −, 5 μg 0.2 ml PBS): 2.0 CPM × 10^−3 and 2.4 CPM × 10^−3 | IL-2 production ([4]; SLE patients, PHA −, 1:100 PBS dilution of 5 μg/0.2 ml): 32.1 CPM × 10^−3 and 35.1 CPM × 10^−3 and 18.1 CPM × 10^−3 | IL-2 activity ([5]; 1 μg IP in 0.2 ml DMSO/PBS, day 1): 25.919 CPM and 34.326 CPM and 16.718 CPM | IL-2 activity ([5]; 1 μg IP in 0.2 ml DMSO/PBS, day 2): 21.398 CPM and 22.050 CPM and 9.338 CPM | IL-2 activity ([5]; 1 μg IP in 0.2 ml DMSO/PBS, day 4): 31.999 CPM and 14.226 CPM and 17.228 CPM | IL-2 activity ([5]; 1 μg IP in 0.2 ml DMSO/PBS, day 6): 41.261 CPM and 80.314 CPM and 42.485 CPM | IL-2 activity ([5]; 1 μg IP in 0.2 ml DMSO/PBS, day 7): 66.854 CPM and 58.094 CPM and 51.268 CPM | IL-2 activity ([5]; 10 μg IP in 0.2 ml DMSO/PBS, day 1): 24.335 CPM and 21.193 CPM and 25.381 CPM | IL-2 activity ([5]; 10 μg IP in 0.2 ml DMSO/PBS, day 2): 31.901 CPM and 36.390 CPM and 22.066 CPM | IL-2 activity ([5]; 10 μg IP in 0.2 ml DMSO/PBS, day 3): 20.316 CPM and 18.288 CPM and 12.126 CPM | IL-2 activity, Counts per minute ([6]; 1 ng): 11,000 Counts per minute | IL-2 activity, Counts per minute ([6]; 10 ng): 1,500 Counts per minute | IL-2 activity, Counts per minute ([6]; 1 μg): 250 Counts per minute | IL-2 activity, Counts per minute ([6]; 100 μg): 280 Counts per minute | % Survival ([7]; 10 μg IP at intervals, 4 days after inoculation with tumor cells): 100% | % Survival ([7]; 10 μg IP at intervals, 9 days after inoculation with tumor cells): 100% | % Survival ([7]; 10 μg IP at intervals, 23 days after inoculation with tumor cells): 100% | % Survival ([7]; 10 μg IP at intervals, 30 days after inoculation with tumor cells): 100% | % Survival ([7]; 10 μg IP at intervals, 37 days after inoculation with tumor cells): 100% | % Survival ([7]; 39 days after inoculation with tumor cells, start of increased dosage regimen): 100% | % Survival ([7]; 41 days after inoculation, increased dosage regimen from day 39): 100% | % Survival ([7]; 43 days after inoculation, increased dosage regimen from day 39): 100% | % Survival ([7]; 46 days after inoculation, increased dosage regimen from day 39): 80% | % Survival ([7]; 48 days after inoculation, increased dosage regimen from day 39): 80% | % Survival ([7]; 50 days after inoculation, increased dosage regimen from day 39): 80% | % Survival ([7]; 53 days after inoculation, increased dosage regimen from day 39): 60% | % Survival ([7]; 60 days after inoculation, increased dosage regimen from day 39): 40% | % Survival ([7]; 67 days after inoculation, increased dosage regimen from day 39): 20% | % Survival ([7]; 68 days after inoculation, increased dosage regimen from day 39): 0% | mortality ([7]; group (b), until just after the increased dosage regimen (day 39)): ^1Day 39 marked the start of an increased dosage regimen to determine the toxicity of the complex of Example 1. The mortality results for group (b) were 0% until just after the increased dosage regimen. | state of macrophages after 24 h incubation ([8]; 1 μg and 0.1 μg (others)): remained unaffected | state of macrophages after 24 h incubation ([8]; 5 μg): died | proliferation of human mononuclear cells (3H methyl-thymidine) ([9]; 5 μg/ml): 5008 and 5182 | proliferation of human mononuclear cells (3H methyl-thymidine) ([9]; 1 × 10^−5 μg/ml): 3218 and 2442
